#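 Method: 48-hour compound exposure of cells in 96-well plates, five concentrations, linear interpolation of endpoints. GI50: concentration for 50% inhibition of growth. The concentration for full growth arrest is given as TGI.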
# Columns and labels:
# Assay in all cases: NCI anticancer screen, dose series, 48 h
# NCI-H460 lung = tested on: NCI-H460 lung
# HCT-116 colon = tested on: HCT-116 colon
# DMS 114 small cell lung = tested on: DMS 114 small cell lung
# CCRF-CEM leukemia = tested on: CCRF-CEM leukemia
# OVCAR-3 ovarian = tested on: OVCAR-3 ovarian
# HL-60(TB) leukemia = tested on: HL-60(TB) leukemia
# SK-OV-3 ovarian = tested on: SK-OV-3 ovarian
# OVCAR-5 ovarian = tested on: OVCAR-5 ovarian
# SK-MEL-28 melanoma = tested on: SK-MEL-28 melanoma
# SK-MEL-2 melanoma = tested on: SK-MEL-2 melanoma
# OVCAR-8 ovarian = tested on: OVCAR-8 ovarian
# TK-10 renal = tested on: TK-10 renal
# UACC-62 melanoma = tested on: UACC-62 melanoma
# NCI-H226 lung = tested on: NCI-H226 lung
# HOP-92 NSCLC = tested on: HOP-92 NSCLC
# RPMI-8226 leukemia = tested on: RPMI-8226 leukemia
# SNB-78 CNS = tested on: SNB-78 CNS
# HT29 colon = tested on: HT29 colon
# EKVX NSCLC = tested on: EKVX NSCLC
# SN12C renal = tested on: SN12C renal
# SF-268 CNS = tested on: SF-268 CNS
# KM12 colon = tested on: KM12 colon
# COLO 205 colon = tested on: COLO 205 colon
# MALME-3M melanoma = tested on: MALME-3M melanoma
# LXFL 529 NSCLC = tested on: LXFL 529 NSCLC
# HOP-18 NSCLC = tested on: HOP-18 NSCLC
# A498 renal = tested on: A498 renal
# HCC-2998 colon = tested on: HCC-2998 colon
# SNB-75 CNS = tested on: SNB-75 CNS
# DMS 273 small cell lung = tested on: DMS 273 small cell lung
# K-562 leukemia = tested on: K-562 leukemia
# KM20L2 colon = tested on: KM20L2 colon
# SF-539 CNS = tested on: SF-539 CNS
# RXF 393 renal = tested on: RXF 393 renal
# LOX IMVI melanoma = tested on: LOX IMVI melanoma
# HOP-62 NSCLC = tested on: HOP-62 NSCLC
# SW-620 colon = tested on: SW-620 colon
# NCI-H522 lung = tested on: NCI-H522 lung
# MOLT-4 leukemia = tested on: MOLT-4 leukemia
# ACHN renal = tested on: ACHN renal
# SK-MEL-5 melanoma = tested on: SK-MEL-5 melanoma
# SNB-19 CNS = tested on: SNB-19 CNS
# UO-31 renal = tested on: UO-31 renal
# SF-295 CNS = tested on: SF-295 CNS
# M14 melanoma = tested on: M14 melanoma
# HCT-15 colon = tested on: HCT-15 colon
# U251 CNS = tested on: U251 CNS
# XF 498 CNS = tested on: XF 498 CNS
# A549 NSCLC = tested on: A549 NSCLC
# UACC-257 melanoma = tested on: UACC-257 melanoma
# CAKI-1 renal = tested on: CAKI-1 renal
# IGROV1 ovarian = tested on: IGROV1 ovarian
# DLD-1 colon = tested on: DLD-1 colon
# NCI-H23 lung = tested on: NCI-H23 lung
# RXF-631 renal = tested on: RXF-631 renal
# OVCAR-4 ovarian = tested on: OVCAR-4 ovarian
# 786-0 renal = tested on: 786-0 renal
compound,measurement,setting,value
C[CH2][Sn]([CH2]C)([O]C(=O)c1ccc(F)cc1)[O]C(=O)c1ccc(F)cc1,GI50,NCI-H460 lung,> 100 µM
same,TGI,NCI-H460 lung,> 100 µM
same,GI50,HCT-116 colon,33 µM
same,TGI,HCT-116 colon,> 55.8 µM
same,GI50,DMS 114 small cell lung,18.8 µM
same,TGI,DMS 114 small cell lung,39.9 µM
same,GI50,CCRF-CEM leukemia,8.75 µM
same,TGI,CCRF-CEM leukemia,31.4 µM
same,GI50,OVCAR-3 ovarian,> 48 µM
same,TGI,OVCAR-3 ovarian,> 82.2 µM
same,GI50,HL-60(TB) leukemia,60.5 µM
same,TGI,HL-60(TB) leukemia,> 100 µM
same,GI50,SK-OV-3 ovarian,> 100 µM
same,TGI,SK-OV-3 ovarian,> 100 µM
same,GI50,OVCAR-5 ovarian,30.5 µM
same,TGI,OVCAR-5 ovarian,> 77.2 µM
same,GI50,SK-MEL-28 melanoma,18.6 µM
same,TGI,SK-MEL-28 melanoma,34.8 µM
same,GI50,SK-MEL-2 melanoma,12.8 µM
same,TGI,SK-MEL-2 melanoma,17.5 µM
same,GI50,OVCAR-8 ovarian,> 52.9 µM
same,TGI,OVCAR-8 ovarian,> 79.2 µM
same,GI50,TK-10 renal,17.8 µM
same,TGI,TK-10 renal,32.4 µM
same,GI50,UACC-62 melanoma,17.7 µM
same,TGI,UACC-62 melanoma,36.6 µM
same,GI50,NCI-H226 lung,15.5 µM
same,TGI,NCI-H226 lung,29.4 µM
same,GI50,HOP-92 NSCLC,12.7 µM
same,TGI,HOP-92 NSCLC,26 µM
same,GI50,RPMI-8226 leukemia,20.1 µM
same,TGI,RPMI-8226 leukemia,53.9 µM
same,GI50,SNB-78 CNS,20 µM
same,TGI,SNB-78 CNS,37.9 µM
same,GI50,HT29 colon,63.8 µM
same,TGI,HT29 colon,> 100 µM
same,GI50,EKVX NSCLC,> 100 µM
same,TGI,EKVX NSCLC,> 100 µM
same,GI50,SN12C renal,36 µM
same,TGI,SN12C renal,> 100 µM
same,GI50,SF-268 CNS,17.9 µM
same,TGI,SF-268 CNS,33.5 µM
same,GI50,KM12 colon,> 100 µM
same,TGI,KM12 colon,> 100 µM
same,GI50,COLO 205 colon,20.3 µM
same,TGI,COLO 205 colon,39.6 µM
same,GI50,MALME-3M melanoma,16.6 µM
same,TGI,MALME-3M melanoma,34.2 µM
same,GI50,LXFL 529 NSCLC,7.84 µM
same,TGI,LXFL 529 NSCLC,21.1 µM
same,GI50,HOP-18 NSCLC,16.1 µM
same,TGI,HOP-18 NSCLC,29.6 µM
same,GI50,A498 renal,16.8 µM
same,TGI,A498 renal,36.3 µM
same,GI50,HCC-2998 colon,90.9 µM
same,TGI,HCC-2998 colon,> 100 µM
same,GI50,SNB-75 CNS,17.9 µM
same,TGI,SNB-75 CNS,33.5 µM
same,GI50,DMS 273 small cell lung,55.6 µM
same,TGI,DMS 273 small cell lung,> 100 µM
same,GI50,K-562 leukemia,16.7 µM
same,TGI,K-562 leukemia,64.7 µM
same,GI50,KM20L2 colon,72.6 µM
same,TGI,KM20L2 colon,> 100 µM
same,GI50,SF-539 CNS,16.4 µM
same,TGI,SF-539 CNS,30.1 µM
same,GI50,RXF 393 renal,13.7 µM
same,TGI,RXF 393 renal,28.8 µM
same,GI50,LOX IMVI melanoma,18 µM
same,TGI,LOX IMVI melanoma,37.9 µM
same,GI50,HOP-62 NSCLC,62.6 µM
same,TGI,HOP-62 NSCLC,> 100 µM
same,GI50,SW-620 colon,22 µM
same,TGI,SW-620 colon,46.7 µM
same,GI50,NCI-H522 lung,1.71 µM
same,TGI,NCI-H522 lung,4.48 µM
same,GI50,MOLT-4 leukemia,26.7 µM
same,TGI,MOLT-4 leukemia,> 85.1 µM
same,GI50,ACHN renal,17.8 µM
same,TGI,ACHN renal,32.4 µM
same,GI50,SK-MEL-5 melanoma,39.6 µM
same,TGI,SK-MEL-5 melanoma,> 100 µM
same,GI50,SNB-19 CNS,16.7 µM
same,TGI,SNB-19 CNS,30.5 µM
same,GI50,UO-31 renal,32.8 µM
same,TGI,UO-31 renal,> 56.3 µM
same,GI50,SF-295 CNS,44.3 µM
same,TGI,SF-295 CNS,> 65.7 µM
same,GI50,M14 melanoma,17.5 µM
same,TGI,M14 melanoma,33.4 µM
same,GI50,HCT-15 colon,25.7 µM
same,TGI,HCT-15 colon,> 63 µM
same,GI50,U251 CNS,19 µM
same,TGI,U251 CNS,42 µM
same,GI50,XF 498 CNS,20.2 µM
same,TGI,XF 498 CNS,37.3 µM
same,GI50,A549 NSCLC,> 100 µM
same,TGI,A549 NSCLC,> 100 µM
same,GI50,UACC-257 melanoma,19.7 µM
same,TGI,UACC-257 melanoma,41 µM
same,GI50,CAKI-1 renal,4.05 µM
same,TGI,CAKI-1 renal,16.3 µM
same,GI50,IGROV1 ovarian,> 80.5 µM
same,TGI,IGROV1 ovarian,> 100 µM
same,GI50,DLD-1 colon,23.9 µM
same,TGI,DLD-1 colon,> 65.8 µM
same,GI50,NCI-H23 lung,17.3 µM
same,TGI,NCI-H23 lung,32.8 µM
same,GI50,RXF-631 renal,17.5 µM
same,TGI,RXF-631 renal,32.3 µM
same,GI50,OVCAR-4 ovarian,52.4 µM
same,TGI,OVCAR-4 ovarian,> 100 µM
same,GI50,786-0 renal,18.8 µM
same,TGI,786-0 renal,35.1 µM
